In the METLIN SMRT retention time set (Domingo-Almenara et al. 2019) one finds RP-LC retention time data, which are given here for 78 molecules.

The nature of the data set: gradient 5% acetonitrile 3 min, to 50% in 2 min, to 85% in 15 min, held 3 min, 100 µL/min. Conditions: column: Zorbax Extend-C18 2.1 x 50 mm; eluents: water / acetonitrile, 0.1% formic acid. The essentials: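 Each retention time is based on an adduct peak selected computationally and verified by manual inspection. Measurements used HPLC–quadrupole time-of-flight mass spectrometry in positive and negative ionization mode on mixtures of ~100 pure standards. Chromatography ran on a Zorbax Extend-C18 column (2.1 × 50 mm, 1.8 μm) at 100 μL/min with water and acetonitrile, each containing 0.1% formic acid, and dead and dwell volumes of 40 μL and 900 μL.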
In turn, `CN(C)c1ccc(C(=O)NC2CCN(c3cc(-c4ccc(F)cc4)[nH]n3)C2)cc1` (stereo not drawn) registered an RP-LC retention time of 733 s. `CCc1cc(=O)n(CC(=O)Nc2cccc(C)c2)c(N)n1` gave an RP-LC retention time of 600 s. In the case of `Cc1nc2cc(N3CC(C(=O)NCc4ccccc4Cl)CC3=O)ccc2o1` (stereo not drawn) it was 734 s; in that of `Cc1cc(C(=O)N2CC(C(=O)Nc3cccc(-c4csc(C)n4)c3)C2)no1`, 721 s. In turn, `COc1cccc(NC(=O)N(Cc2nnc3n2CCCCC3)c2cccc(OC)c2)c1` gave an RP-LC retention time of 718 s. In the case of `Cc1nn(Cc2ccc(C(=O)N3CCN(c4ccccn4)CC3)cc2)c(C)c1S(=O)(=O)N(C)C` it was 606 s; in that of `Cc1cc(C)cc(NC(=O)C2CCCN(c3ccc4cc(S(=O)(=O)N5CCCC5)ccc4n3)C2)c1` (stereo not drawn), 835 s. On to `CCCCC(=O)Nc1nc(-c2ccc3c(c2)N(CCC)C(=O)CO3)cs1`, for which the RP-LC retention time amounted to 1010 s. In the case of `CC(C)(C)NC(=O)c1ccc(C(=O)NC(C)(C)C)cc1` it was 840 s. In the case of `CSc1ccc(CNC(=O)Cn2c(C)cc(-c3nnc(C4CC4)o3)c2C)cc1` it was 816 s; in that of `CCN1c2ccccc2C(=O)NC12CCN(C(=O)Cc1ccc(OC)cc1)CC2`, 805 s. In turn, `CCN1CCC(N(Cc2ccc3c(c2)OCO3)C(=O)Nc2cc(Cl)ccc2C(=O)OC)CC1` registered an RP-LC retention time of 774 s. The molecule `COc1ccc(-c2cn3c(CC(=O)Nc4ccc(Cl)c(C(F)(F)F)c4)csc3n2)cc1OC` showed an RP-LC retention time of 882 s. In the case of `CCC1CCCCN1C(=O)c1cnc2nc(C)ccc2c1Nc1ccc(C)c(C)c1` (stereo not drawn) it was 702 s; in that of `CCn1c(=O)c(C)nc2cc(-c3noc(-c4cc(OC)c(OC)c(OC)c4)n3)ccc21`, 919 s. `CCCOC(=O)C1=C(C)NC2=C(C(=O)CCC2)C1c1ccc(OC)c(OC)c1OC` (stereo not drawn) showed an RP-LC retention time of 791 s. In the case of `CCOC(=O)c1nc(N(CC)c2cccc(C)c2)c2ccccc2n1` it was 1050 s; in that of `Cc1cccc(C)c1Nc1c(-c2ccc(O)cc2)nc2ncccn12`, 658 s; in that of `CCOc1ccccc1N1CCN(Cc2nc3nc(C)cc(N4CCCC4)n3n2)CC1`, 627 s. To `O=C(O)Cc1sc(Nc2ccc(F)c(F)c2F)nc1-c1ccccc1` belongs 977 s; to `Cc1ccc(-c2ccc(-n3nc(C)c(S(=O)(=O)N4CCN(C)CC4)c3C)nn2)cc1C`, 731 s; to `CCn1cc(-c2ccncc2)cc1C(=O)NCc1cccc(Br)c1`, 705 s. In the case of `Cc1ccsc1C(=O)NCC1Cn2cccc2C(=O)N1C` (stereo not drawn) it was 656 s. Molecule `Cc1sc(-c2noc(C3CCC3)n2)cc1S(=O)(=O)N1CCC(C(=O)N2CCCCCC2)CC1` registered an RP-LC retention time of 1180 s. In the case of `O=S(=O)(Nc1cccn2c(C3CCC3)nnc12)c1cccc2nsnc12` it was 719 s; in that of `O=C(c1ccco1)N1CCCn2nc(-c3ccncc3)cc2C1`, 560 s. To `Cc1cccc(C)c1Nc1c(-c2ccc(N3CCOCC3)cc2)nc2ncccn12` belongs 721 s; to `Cc1nnc(C2CCCN(C(=O)c3cc(C(F)(F)F)cc(C(F)(F)F)c3)C2)s1` (stereo not drawn), 823 s; to `O=C(Nc1cnc(-c2cccc(Cl)c2)nc1)C1CCCC1`, 1100 s. In the case of `CC1CCN(c2ccc(-c3noc(CN(C)Cc4ccccc4)n3)cn2)CC1` it was 912 s; in that of `CNC(=O)Cc1csc(-c2ccccc2F)n1`, 725 s.

`CCCN1C(=O)COc2ccc(-c3noc(-c4cccc(NC(C)=O)c4C)n3)cc21` had an RP-LC retention time of 872 s. The molecule `Cc1ccc2nc(-c3ccccc3O)c(Nc3ccc(Cl)cc3)n2c1` registered an RP-LC retention time of 781 s.

As for `NC(=O)c1ccccc1NC(=O)NC1CC(=O)N(c2ccc(Cl)cc2)C1` (stereo not drawn), the RP-LC retention time worked out at 667 s. In the case of `CCCN1N=C(C(=O)N2CCOCC2)S(=O)(=O)c2cc(Cl)ccc21` it was 813 s; in that of `Cc1cc([N+](=O)[O-])nn1CC(=O)Nc1c(F)cc(F)cc1Br`, 762 s; in that of `Cc1cccc(-c2nnc(SCc3cc(=O)n4nc(C)sc4n3)o2)c1`, 782 s. To `COc1ccc(-c2cc3nn(CC(=O)Nc4ccc(Cl)cc4)c(=O)n3c(C)n2)cc1` belongs 974 s; to `CCCN(C(C)=O)c1nc(-c2ccc(C)cc2)cs1`, 1190 s. In turn, `Cc1ccccc1NC(=O)C1(C)Oc2cccnc2N(C)C1=O` (stereo not drawn) had an RP-LC retention time of 778 s. To `Clc1cccc(-c2nnc(-c3nc(NCc4ccco4)c4ccccc4n3)o2)c1` belongs 1050 s. To `Cc1ccc(C)c(C(=O)N2C[C@@H](F)C[C@H]2C(=O)N2CCCCC2)c1` belongs 710 s; to `CC(C)CCNC(=O)NCCn1c(-c2ccc(F)cc2)nc2ccccc21`, 650 s; to `COc1ccc2c(c1)C1(CCN(S(=O)(=O)c3ccc(NC(C)=O)cc3)C1)C(=O)N2` (stereo not drawn), 686 s. To `Cc1ccc(C)c(NC(=O)C2CCN(S(=O)(=O)c3ccc4c(c3)sc(=O)n4C(C)C)CC2)c1` belongs 1070 s. Consider `COc1ncccc1C(=O)Nc1ccc2c(c1)CCC(=O)N2`, for which the RP-LC retention time was found to be 641 s. To `CCc1cc(=O)n(CC(=O)Nc2ccc(OC)c(OC)c2)c(N2CCOCC2)n1` belongs 646 s.

Molecule `CCOC(=O)c1ccc(Nc2c(-c3ccc(C)cc3)nc3cnccn23)cc1` came in with an RP-LC retention time of 918 s. With `CCc1noc(NC(C)=O)c1-c1ccc(C)c(S(=O)(=O)Nc2ccc(C(=O)OC)cc2)c1`, the RP-LC retention time is 736 s. To `Cc1ccc(NS(=O)(=O)c2n[nH]c(C)c2C(=O)NCc2ccc(F)cc2F)cc1` belongs 821 s.

`O=C(Cn1c(=O)oc2ccccc21)N1CC2CC(C1)c1cccc(=O)n1C2` (stereo not drawn) yielded an RP-LC retention time of 588 s. To `Cc1cccc(-c2nc(-c3ccc(S(=O)(=O)N4CCOCC4)cc3)no2)c1` belongs 1080 s. In the case of `NC(=O)c1oc2ccccc2c1NC(=O)c1coc2ccccc2c1=O` it was 769 s.

Consider `CCc1noc([C@@H]2CC(F)(F)CN2S(=O)(=O)c2cccnc2)n1`, for which the RP-LC retention time is 773 s. In the case of `CCOC(=O)c1noc2nc(C)nc(N(C)c3cc(C)ccc3OC)c12` it was 1040 s.

With `CCc1noc(NC(C)=O)c1-c1ccc(OC)c(S(=O)(=O)Nc2ccccc2F)c1`, the RP-LC retention time amounted to 763 s. In the case of `Cc1cccc(C)c1-n1ccn(Cc2nc(-c3ccc(C(C)(C)C)cc3)no2)c(=O)c1=O` it was 1120 s; in that of `COc1ccc(S(=O)(=O)N2C[C@H](F)C[C@@H]2C(=O)N2CCOCC2)cc1Cl`, 721 s. On to `CCn1c(CCNC(=O)c2ccc(OC)cc2C)nc2cccnc21`, for which the RP-LC retention time was determined as 733 s.

`CN(Cc1nc(Cn2ccn3nc(-c4ccc(F)cc4)cc3c2=O)no1)C1CCCCC1`: the RP-LC retention time is 704 s. In the case of `COC(=O)c1cnc2nc(C)ccc2c1Nc1ccc(C)c(F)c1` it was 696 s; in that of `c1ccc2c(-c3nc(-c4ccc5c(c4)ncn5CCN4CCCCC4)no3)n[nH]c2c1`, 609 s; in that of `CCCn1cc(C(=O)NCCN2CCc3ccccc3C2)c2cccnc21`, 648 s. To `Cc1c(Cl)cccc1NC(=O)NCCc1cn(CC(C)C)c2ncccc12` belongs 902 s.

`Cc1cc(C(=O)NC2CC2)c2cc(Cl)ccc2n1` showed an RP-LC retention time of 669 s. The molecule `CC(C)(c1ccccc1)c1cc(CN2CCOCC2)c(O)c(CN2CCOCC2)c1` came in with an RP-LC retention time of 575 s. To `CC(NC(=O)C1CCN(c2cnc3nccnc3c2)CC1)c1ccccc1` (stereo not drawn) belongs 705 s. The molecule `COc1ccc(Cl)c2c(=O)c3c([nH]c12)CCN(CC(=O)Nc1ccc(C)cc1)C3` registered an RP-LC retention time of 632 s. To `O=C(Nc1ccc(F)cc1Cl)c1c(O)c2cccnc2n(-c2cccc(F)c2)c1=O` belongs 1300 s; to `CC1=C(c2ccccc2)S(=O)(=O)N=C1N1CCCN(C(=O)c2cc(C)ccc2C)CC1`, 870 s.

Turning to `Cn1cc(S(=O)(=O)N2CCC(C(=O)NCc3cccnc3)CC2)cc1C(=O)N1CCCC1`, the RP-LC retention time turned out to be 674 s.

As to `c1ccc(-n2ncc3c(Nc4ccc5c(c4)OCO5)nc(N4CCOCC4)nc32)cc1`, the RP-LC retention time came to 1100 s. In the case of `Cn1nc(C(=O)N2CCCC(C(=O)Nc3ccccc3)C2)c2c1CCN(C(=O)C1CCCC1)C2` (stereo not drawn) it was 786 s; in that of `COc1cccc2c(Nc3ccccc3C)cc(C(=O)N3CCSCC3)nc12`, 689 s. Consider `CC(=O)Nc1ccc(Cc2nc(-c3cccc(-c4ccn[nH]4)c3)no2)cc1`, for which the RP-LC retention time was found to be 798 s. In the case of `CS(=O)(=O)N1CCC(C(=O)Nc2cccc(Br)c2)Oc2ccccc21` (stereo not drawn) it was 996 s. To `COc1ccc(S(=O)(=O)NCCCCN2CCOC(c3ccccc3)C2)c(C)c1` (stereo not drawn) belongs 600 s; to `O=C(O)c1nnn(-c2ccc3c(c2)CCC3)c1-c1ccccn1`, 750 s.
